# Target: High affinity nerve growth factor receptor (Homo sapiens, UniProt P04629)
# Assay: Evaluation of Binding Activity for Human TrkA Protein: Measurement was carried out using TrkA LanthaScreen (registered trademark) Eu Kinase Binding Assay (ThermoFisher SCIENTIFIC). To a 384 well plate (Corning), 2.5 μL of the test compound having various concentrations and diluted with Kinase buffer (ThermoFisher SCIENTIFIC) and 2.5 μL of 15 nM TrkA enzyme (ThermoFisher SCIENTIFIC) were added. Moreover, […] Eu-anti-His Tag antibody (ThermoFisher SCIENTIFIC) and 5 μL of 30 nM Kinase (registered trademark) Tracer 236 (ThermoFisher SCIENTIFIC) were added, followed by reaction at room temperature for 60 minutes. After the reaction, the fluorescence intensity of Europium (Emission wavelength 615 nm) and TR-FRET (Emission wavelength 665 nm) with an excitation wavelength of 340 nm were measured with EnVision 2100 (PerkinElmer) to calculate the fluorescence ratio as the amount of the test compound and the TrkA enzyme bonded. The inhibitory activity (IC50 value) of each test compound was calculated with the fluorescence ratio of the well to which a solvent was added instead of the test compound being 0% and the fluorescence ratio of the well without addition of the TrkA protein being 100%.
# High affinity nerve growth factor receptor, sequence (P04629 whole entry): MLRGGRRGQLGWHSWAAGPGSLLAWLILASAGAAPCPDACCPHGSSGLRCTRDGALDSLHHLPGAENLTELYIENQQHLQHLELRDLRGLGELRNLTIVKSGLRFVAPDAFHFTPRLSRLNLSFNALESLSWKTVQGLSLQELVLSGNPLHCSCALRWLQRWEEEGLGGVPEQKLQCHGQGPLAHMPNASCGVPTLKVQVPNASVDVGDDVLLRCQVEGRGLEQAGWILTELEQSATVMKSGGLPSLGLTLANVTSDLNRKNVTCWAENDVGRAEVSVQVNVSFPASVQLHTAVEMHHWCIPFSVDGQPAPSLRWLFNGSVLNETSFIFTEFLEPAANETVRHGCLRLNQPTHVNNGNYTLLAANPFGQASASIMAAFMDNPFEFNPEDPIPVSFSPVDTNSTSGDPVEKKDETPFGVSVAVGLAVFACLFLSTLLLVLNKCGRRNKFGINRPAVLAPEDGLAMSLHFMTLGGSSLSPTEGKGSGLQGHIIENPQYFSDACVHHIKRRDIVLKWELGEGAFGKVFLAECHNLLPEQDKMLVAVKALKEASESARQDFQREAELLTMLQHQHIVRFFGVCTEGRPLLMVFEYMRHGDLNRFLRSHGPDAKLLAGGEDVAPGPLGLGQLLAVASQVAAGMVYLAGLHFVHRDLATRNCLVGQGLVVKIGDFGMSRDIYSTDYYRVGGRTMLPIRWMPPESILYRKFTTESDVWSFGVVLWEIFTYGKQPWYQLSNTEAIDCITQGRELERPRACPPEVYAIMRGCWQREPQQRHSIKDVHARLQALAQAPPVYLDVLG
row,IC50 [nM],SMILES
1,< 50,Cc1ncc(-c2nc(-c3ccccc3)c(NC(=O)N[C@H]3c4ccc(F)cc4C(C)(C)C[C@H]3O)cc2C)cn1
2,< 50,Cc1ncc(-c2nc(-c3ccccc3)c(NC(=O)N[C@H]3c4cc(F)ccc4C(C)(C)C[C@H]3O)cc2C)cn1
